Laboratory results reported in US20260125421A1, “ANTIVIRAL COMPOUNDS” (Hoffmann-La Roche Inc., priority 2022, published 2026).

Tests used:
Assay in all cases: biochemical
[1] = target: MERS-CoV 3CL^pro (Middle East respiratory syndrome-related coronavirus, UniProt K9N7C7)
[2] = target: SARS-CoV 3CL^pro (Severe acute respiratory syndrome coronavirus, UniProt P0C6X7)
[3] = target: T1, HCoV-229E 3CL^pro (Human coronavirus 229E, UniProt P0C6X1)
T1 construct: […]; made in house; host or cells: E. coli BL21 (DE3)
T1 sequence (P0C6X1 2966-3267): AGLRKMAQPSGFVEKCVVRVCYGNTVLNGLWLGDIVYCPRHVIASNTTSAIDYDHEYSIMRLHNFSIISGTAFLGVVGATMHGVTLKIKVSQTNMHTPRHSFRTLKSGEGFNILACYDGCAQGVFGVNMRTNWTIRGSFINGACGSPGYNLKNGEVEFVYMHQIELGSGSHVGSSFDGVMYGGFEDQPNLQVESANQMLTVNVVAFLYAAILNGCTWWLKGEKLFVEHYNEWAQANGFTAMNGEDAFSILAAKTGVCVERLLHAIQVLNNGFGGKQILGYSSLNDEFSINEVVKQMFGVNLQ

[4] = target: T2, SARS-CoV-2 3CL^pro (Severe acute respiratory syndrome coronavirus 2, UniProt P0DTD1)
T2 construct: […]; made in house; host or cells: Escherichia coli

Chain of MERS-CoV 3CL^pro (K9N7C7 3248-3553): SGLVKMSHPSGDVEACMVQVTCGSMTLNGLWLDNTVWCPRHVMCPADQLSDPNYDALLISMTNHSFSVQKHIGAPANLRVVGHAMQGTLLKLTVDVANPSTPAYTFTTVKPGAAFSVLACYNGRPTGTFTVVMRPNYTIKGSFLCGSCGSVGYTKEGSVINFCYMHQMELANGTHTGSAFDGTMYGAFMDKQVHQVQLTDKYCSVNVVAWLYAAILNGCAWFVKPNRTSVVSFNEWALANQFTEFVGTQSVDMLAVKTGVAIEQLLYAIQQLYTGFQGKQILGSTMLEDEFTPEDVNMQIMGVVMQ

SMILES | IC50 [1] [µM] | IC50 [2] [µM] | IC50 [3] [µM] | IC50 [4] [µM]
CC(C)(C)[C@H](NC(=O)[C@@H]1CC1(F)F)C(=O)N1C[C@@H]2CCC[C@@H]2[C@H]1C(=O)NN(C[C@H]1C(=O)N[C@H]2C[C@H]21)C(=O)[C@@H](F)Cl [Example 39, (1S)-N-[(1S)-1-[(3S,3aS,6aR)-3-[[[(2S)-2-chloro-2-fluoro-acetyl]-[[(1S,4S,5S)-3-oxo-2-azabicyclo[3.1.0]hexan-4-yl]methyl]amino]carbamoyl]-3,3a,4,5,6,6a-hexahydro-1H-cyclopenta[c]pyrrole-2-carbonyl]-2,2-dimethyl-propyl]-2,2-difluoro-cyclopropanecarboxamide] | 0.289 | 0.034 | 0.207 | 0.029
CC1(C)CC(CN(NC(=O)[C@@H]2[C@H]3CCC[C@H]3CN2C(=O)[C@@H](NC(=O)[C@@H]2CC2(F)F)C(C)(C)C)C(=O)[C@H](F)Cl)C(=O)N1 (mixture of isomers) [Example 3, (1S)—N-[(1S)-1-[(3S,3aS,6aR)-3-[[[(2R)-2-chloro-2-fluoro-acetyl]-[rac-(5,5-dimethyl-2-oxo-pyrrolidin-3-yl)methyl]amino]carbamoyl]-3,3a,4,5,6,6a-hexahydro-1H-cyclopenta[c]pyrrole-2-carbonyl]-2,2-dimethyl-propyl]-2,2-difluoro-cyclopropanecarboxamide] | 0.85 | 0.028 | 2.52 | 0.023
C[C@@H]1C[C@@H](CN(NC(=O)[C@@H]2[C@@H]3[C@H](CN2C(=O)[C@@H](NC(=O)[C@@H]2CC2(F)F)C(C)(C)C)C3(C)C)C(=O)[C@@H](F)Cl)C(=O)N1 [Example 34, (1S)-N-[(1S)-1-[(1R,2S,5S)-2-[[[(2S)-2-chloro-2-fluoro-acetyl]-[[(3S,5R)-5-methyl-2-oxo-pyrrolidin-3-yl]methyl]amino]carbamoyl]-6,6-dimethyl-3-azabicyclo[3.1.0]hexane-3-carbonyl]-2,2-dimethyl-propyl]-2,2-difluoro-cyclopropanecarboxamide] | 0.08 | 0.014 | 0.037 | 0.008
CCC(CC)[C@H](NC(=O)[C@H](F)Cl)C(=O)N1C[C@@H]2CCC[C@@H]2[C@H]1C(=O)NN(C[C@@H]1CC(C)(C)NC1=O)C(=O)[C@H](F)Cl [Example 9, (2R)-N-[(1S)-1-[(3S,3aS,6aR)-3-[[[(2R)-2-chloro-2-fluoro-acetyl]-[[(3S)-5,5-dimethyl-2-oxo-pyrrolidin-3-yl]methyl]amino]carbamoyl]-3,3a,4,5,6,6a-hexahydro-1H-cyclopenta[c]pyrrole-2-carbonyl]-2-ethyl-butyl]-2-chloro-2-fluoro-acetamide] | 0.25 | 0.007 | 0.241 | 0.007
CC1(C)C[C@H](CN(NC(=O)[C@@H]2[C@@H]3[C@H](CN2C(=O)[C@@H](NC(=O)[C@@H]2CC2(F)F)C(C)(C)C)C3(C)C)C(=O)[C@H](F)Cl)C(=O)N1 [Example 24, (1S)-N-[(1S)-1-[(1R,2S,5S)-2-[[[(2R)-2-chloro-2-fluoro-acetyl]-[[(3R)-5,5-dimethyl-2-oxo-pyrrolidin-3-yl]methyl]amino]carbamoyl]-6,6-dimethyl-3-azabicyclo[3.1.0]hexane-3-carbonyl]-2,2-dimethyl-propyl]-2,2-difluoro-cyclopropanecarboxamide] | 1.4 | 0.177 | 2.25 | 0.087
C[C@@H]1C[C@H](CN(NC(=O)[C@@H]2[C@H]3CCC[C@H]3CN2C(=O)[C@@H](NC(=O)[C@@H]2CC2(F)F)C(C)(C)C)C(=O)[C@@H](F)Cl)C(=O)N1 [Example 29, (1S)-N-[(1S)-1-[(3S,3aS,6aR)-3-[[[(2S)-2-chloro-2-fluoro-acetyl]-[[(3R,5R)-5-methyl-2-oxo-pyrrolidin-3-yl]methyl]amino]carbamoyl]-3,3a,4,5,6,6a-hexahydro-1H-cyclopenta[c]pyrrole-2-carbonyl]-2,2-dimethyl-propyl]-2,2-difluoro-cyclopropanecarboxamide] | 0.344 | 0.093 | 0.233 | 0.036
